PubChem BioAssay (NCI)
Several values for one entry are separate records, joined by “and”; a condition that tells them apart may be missing. Equal values may be shown once.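 These data come from cells grown in 96-well plates and exposed to compound for 48 hours at five concentrations. Here, GI50 denotes the concentration required for 50% inhibition of growth. Definition used: TGI = concentration required for complete inhibition of growth.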

Experiments:
Test in all cases: DTP human tumour cell line panel, 48 h
OVCAR-5 ovarian = tested on: OVCAR-5 ovarian
SF-539 CNS = tested on: SF-539 CNS
HL-60(TB) leukemia = tested on: HL-60(TB) leukemia
UO-31 renal = tested on: UO-31 renal
SK-MEL-5 melanoma = tested on: SK-MEL-5 melanoma
MDA-MB-231 breast = tested on: MDA-MB-231 breast
HT29 colon = tested on: HT29 colon
SF-295 CNS = tested on: SF-295 CNS
NCI-H460 lung = tested on: NCI-H460 lung
HOP-62 NSCLC = tested on: HOP-62 NSCLC

SMILES | GI50 (OVCAR-5 ovarian) [µM] | TGI (OVCAR-5 ovarian) [µM] | GI50 (SF-539 CNS) | TGI (SF-539 CNS) | GI50 (HL-60(TB) leukemia) [µM] | TGI (HL-60(TB) leukemia) | GI50 (UO-31 renal) [µM] | TGI (UO-31 renal) | GI50 (SK-MEL-5 melanoma) | TGI (SK-MEL-5 melanoma) | GI50 (MDA-MB-231 breast) [µM] | TGI (MDA-MB-231 breast) | GI50 (HT29 colon) | TGI (HT29 colon) | GI50 (SF-295 CNS) | TGI (SF-295 CNS) | GI50 (NCI-H460 lung) | TGI (NCI-H460 lung) | GI50 (HOP-62 NSCLC) | TGI (HOP-62 NSCLC)
COc1ccc(-c2ccc(C3CC(c4ccc(Cl)cc4)=NN3)o2)c([N+](=O)[O-])c1 (configuration not stated) | > 100 | > 100 | > 100 µM | > 100 µM | > 100 | > 100 µM | > 100 | > 100 µM | > 100 µM | > 100 µM | > 100 | > 100 µM | > 100 µM | > 100 µM | 43.5 µM | > 100 µM | > 100 µM | > 100 µM | > 100 µM | > 100 µM
COc1cc2nc(Nc3cccc(F)c3)nc(Nc3cc(C)[nH]n3)c2cc1OC | 1.76 | 3.2 | 1.78 µM | 3.18 µM | 1.93 | 4.46 µM | 1.77 | 3.29 µM | 1.44 µM | 2.84 µM | 1.74 | 3.42 µM | 1.99 µM | 4.93 µM | 1.58 µM | 3.04 µM | 1.83 µM | 3.74 µM | 1.87 µM | 3.62 µM
Nc1ncnc2c1ncn2C1OC(CO)=CC1O (configuration not stated) | – | > 37.5 | – | > 37.5 µM | – | > 37.5 µM | – | > 37.5 µM | – | > 37.5 µM | – | > 37.5 µM | – | > 37.5 µM | – | > 37.5 µM | – | > 37.5 µM | – | > 37.5 µM
Cn1cc(C2=C(c3cn(CCN)c4ccccc34)C(=O)NC2=O)c2ccccc21 | 10.8 | > 25 | 4.83 µM | 13.9 µM | 6.55 | 14.9 µM | 3.7 | 20.6 µM | 4.59 µM | 13 µM | 6 | 19.2 µM | 4.2 µM | 15.7 µM | 5.54 µM | 16.7 µM | 7.54 µM | > 25 µM | 6.07 µM | > 19.7 µM
NS(=O)(=O)c1ccc(CCN=C=S)cc1 | 1.85 | 3.78 | 1.87 µM | 3.85 µM | 3.32 | 11.2 µM | 1.53 | 2.87 µM | 2.14 µM | 4.89 µM | 2.03 | 4.4 µM | 2.54 µM | 6.66 µM | 14.6 µM | 27.8 µM | 3.53 µM | 13.1 µM | 3.23 µM | 10.1 µM
Cc1nc(NC(=O)CCCN2C(=O)c3cccc4cccc(c34)C2=O)sc1C(=O)Nc1cc(C(=O)NCCCN(C)C)n(C)c1 | > 100 | > 100 | > 100 µM | > 100 µM | > 100 | > 100 µM | > 100 | > 100 µM | > 100 µM | > 100 µM | > 100 | > 100 µM | > 100 µM | > 100 µM | > 100 µM | > 100 µM | > 100 µM | > 100 µM | > 100 µM | > 100 µM
CCCCCCCC[N+](C)(CCCCCCCC)CCCCCCCC | 0.621 | 1.98 | 0.513 µM | 1.66 µM | 0.14 | 0.366 µM | 0.465 | 1.62 µM | 0.178 µM | 0.344 µM | 0.338 | 1.26 µM | 0.295 µM | 1.25 µM | 0.261 µM | 0.826 µM | 0.43 µM | 1.45 µM | 0.473 µM | 1.61 µM
CCn1cnc2c(Nc3cccc(Cl)c3)nc(N[C@@H]3CCCC[C@@H]3N)nc21 | 1.81 | 7.92 | 1.42 µM | 2.8 µM | 1.78 | 3.93 µM | 1.6 | 4.04 µM | 1.68 µM | 3.11 µM | 1.83 | 5.37 µM | 1.91 µM | 5.87 µM | 1.55 µM | 4.51 µM | 1.23 µM | 3.7 µM | 1.52 µM | 3.71 µM
COc1ccc([N+](=O)[O-])c(S(=O)(=O)c2ccc(Cl)cc2)n1 | 3.13 | 12.3 | 3.39 µM | 12.3 µM | 6.8 | 41 µM | 2.97 | 10.2 µM | 12 µM | 24.9 µM | 2.83 | 7.43 µM | 3.34 µM | 13.9 µM | 13.1 µM | 28 µM | 14.6 µM | 30.1 µM | 16.6 µM | 30.5 µM
NC1=N/C(=C2/CCNC(=O)c3[nH]c(Br)cc32)C(=O)N1 | – | > 100 | 4.29 µM and 13 µM | 17.3 µM and 35.5 µM | – | 11.2 µM and 6.94 µM | – | > 73 µM and 29.8 µM | 19.7 µM and 40.6 µM | > 100 µM | – | 16.2 µM | 27.2 µM and 67.7 µM | > 100 µM | – | > 100 µM | – | > 100 µM | – | > 100 µM
COC1=CC(c2ccc[nH]2)=N/C1=C\c1[nH]c(C)c(C(=O)CCCCC(=O)Nc2ccccc2)c1C | 3.14 | 16.5 | 3.78 µM | 9.78 µM | 1.84 | 5.37 µM | 1.43 | 3.12 µM | 4.22 µM | 11.6 µM | 0.396 | 1.95 µM | 0.693 µM | 2.52 µM | 6.11 µM | 29.2 µM | 1.25 µM | 2.63 µM | 2.98 µM | 9.7 µM
CO[C@@H]1[C@H](OC(=O)NC(=O)CCl)CC[C@]2(CO2)[C@H]1[C@@]1(C)O[C@@H]1CC=C(C)C | 3.44 | 35.2 | 21.3 µM | 23.8 µM and 46.9 µM | – | 14.8 µM | 16.1 | 26.6 µM and 46.2 µM | 3.87 µM and 12.3 µM | 24.2 µM and 40.7 µM | 4.28 | 38.1 µM and 12.7 µM | 8.62 µM and 20.5 µM | 27.5 µM and 88.9 µM | 6.62 µM and 4.21 µM | 18.7 µM and 38 µM | 0.755 µM and 2.6 µM | 24.2 µM and 49.6 µM | 9.11 µM and 0.958 µM | 41.1 µM and 44.9 µM
COc1ccc(/C=C/c2n[nH]c3ccc(N4CCOC4=O)cc23)cc1 | 3.16 | 59.8 | 0.99 µM | 3.33 µM | 1.44 | 4.04 µM | 2.52 | 9.92 µM | 2.15 µM | 5.66 µM | 2.98 | 9.8 µM | 1.49 µM | > 100 µM | 3.44 µM | 29.2 µM | 1.95 µM | 11.8 µM | 2.14 µM | 13 µM
COc1cc(-n2cc(-c3ccc(Cl)cc3)[nH]c2=O)cc(OC)c1OC | 22.7 | 54.1 | 23.8 µM | 49.2 µM | > 100 | > 100 µM | 22.5 | 64.4 µM | 31.1 µM | > 100 µM | 23.1 | 55.4 µM | 43.8 µM | > 100 µM | 30.9 µM | > 100 µM | 39.6 µM | > 100 µM | 30.8 µM | 78.8 µM
COc1cc(C(=O)c2cc3c(cc2C)OCO3)cc(OC)c1OC | 0.439 | > 100 | 0.0617 µM | 0.376 µM | 0.0329 | 0.152 µM | 0.624 | > 100 µM | 0.0454 µM | 1.74 µM | 0.147 | > 100 µM | 0.105 µM | > 100 µM | 0.102 µM | > 100 µM | 0.124 µM | > 33.2 µM | 0.17 µM | > 100 µM
COC1=CC(c2ccc[nH]2)=N/C1=C\c1ccc[nH]1 | 0.683 | 13.7 | 0.295 µM | 1.87 µM | 0.0672 | 3.39 µM | 0.0778 | 0.339 µM | 0.064 µM | 0.261 µM | 0.11 | 14.6 µM | < 0.013 µM | 3.93 µM | 0.58 µM | 3.17 µM | 0.0595 µM | 10.9 µM | 0.27 µM | 9.27 µM
CSc1nc2sc3cc(Cl)ccc3n2c(=N)c1C#N | > 62.7 | > 100 | 15.2 µM | > 100 µM | 7.71 | > 100 µM | > 76.2 | > 100 µM | 3.2 µM | > 25.9 µM | > 85.7 | > 100 µM | 5.35 µM | > 100 µM | 2.21 µM | 16.1 µM | > 79.7 µM | > 100 µM | 45.4 µM | > 100 µM
O=C(/C=C\c1ccc(Cl)cc1Cl)c1cccs1 | – | 41.3 | – | 36.5 µM | – | > 100 µM | – | 25 µM | – | 29.9 µM | – | 40.5 µM | – | 64.5 µM | – | 37.9 µM | – | 89.5 µM | – | 56.2 µM
